For assay [1], the target named is Somatostatin receptor type 5 (Homo sapiens, UniProt P35346). The assay can be described thus: Binding affinity to human SST5R.
Assay [2] addresses Somatostatin receptor type 2 (Homo sapiens, UniProt P30874). The assay can be described thus: Binding affinity to human SST2R.
Assay [3] deals with Somatostatin receptor type 1 (Homo sapiens, UniProt P30872). The assay can be described thus: Binding affinity to human SST1R.
In assay [4] the target is Somatostatin receptor type 3 (Homo sapiens, UniProt P32745). The assay is described as follows: Binding affinity to human SST3R.
Assay [5] concerns the target Histamine H1 receptor (Homo sapiens, UniProt P35367). The assay is described as follows: Binding affinity to human histamine H1 receptor.
Assay [6] addresses Voltage-gated inwardly rectifying potassium channel KCNH2 (Homo sapiens, UniProt Q12809). The assay can be described thus: Binding affinity to human ERG channel.

Each structure is given as a SMILES string. Where only a bound is given, the exact number is not on record here.

Sequence of Somatostatin receptor type 5 (P35346 whole entry): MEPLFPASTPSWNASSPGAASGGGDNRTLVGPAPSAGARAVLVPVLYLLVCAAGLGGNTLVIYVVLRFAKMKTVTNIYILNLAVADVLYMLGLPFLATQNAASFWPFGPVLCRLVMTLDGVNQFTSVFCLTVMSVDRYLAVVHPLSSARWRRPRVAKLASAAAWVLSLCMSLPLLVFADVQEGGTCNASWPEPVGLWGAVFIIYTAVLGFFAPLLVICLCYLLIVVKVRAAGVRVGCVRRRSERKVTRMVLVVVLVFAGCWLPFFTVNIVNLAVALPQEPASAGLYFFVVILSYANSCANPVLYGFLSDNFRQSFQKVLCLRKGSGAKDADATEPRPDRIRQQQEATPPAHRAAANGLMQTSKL
Sequence of Histamine H1 receptor (P35367 whole entry): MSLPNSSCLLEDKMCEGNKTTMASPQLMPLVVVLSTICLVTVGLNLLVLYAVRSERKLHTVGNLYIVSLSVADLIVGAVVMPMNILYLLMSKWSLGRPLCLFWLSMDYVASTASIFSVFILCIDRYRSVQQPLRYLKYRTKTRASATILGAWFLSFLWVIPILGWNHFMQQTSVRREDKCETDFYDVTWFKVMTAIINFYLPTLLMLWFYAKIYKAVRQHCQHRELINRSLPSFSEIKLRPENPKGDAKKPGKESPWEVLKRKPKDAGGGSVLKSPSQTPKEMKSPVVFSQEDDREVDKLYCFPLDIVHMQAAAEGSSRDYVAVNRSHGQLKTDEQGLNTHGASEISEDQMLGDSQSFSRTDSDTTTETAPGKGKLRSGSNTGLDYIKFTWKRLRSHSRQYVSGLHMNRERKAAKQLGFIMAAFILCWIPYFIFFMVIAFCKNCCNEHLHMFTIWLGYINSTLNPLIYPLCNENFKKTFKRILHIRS
Sequence of Voltage-gated inwardly rectifying potassium channel KCNH2 (Q12809 whole entry): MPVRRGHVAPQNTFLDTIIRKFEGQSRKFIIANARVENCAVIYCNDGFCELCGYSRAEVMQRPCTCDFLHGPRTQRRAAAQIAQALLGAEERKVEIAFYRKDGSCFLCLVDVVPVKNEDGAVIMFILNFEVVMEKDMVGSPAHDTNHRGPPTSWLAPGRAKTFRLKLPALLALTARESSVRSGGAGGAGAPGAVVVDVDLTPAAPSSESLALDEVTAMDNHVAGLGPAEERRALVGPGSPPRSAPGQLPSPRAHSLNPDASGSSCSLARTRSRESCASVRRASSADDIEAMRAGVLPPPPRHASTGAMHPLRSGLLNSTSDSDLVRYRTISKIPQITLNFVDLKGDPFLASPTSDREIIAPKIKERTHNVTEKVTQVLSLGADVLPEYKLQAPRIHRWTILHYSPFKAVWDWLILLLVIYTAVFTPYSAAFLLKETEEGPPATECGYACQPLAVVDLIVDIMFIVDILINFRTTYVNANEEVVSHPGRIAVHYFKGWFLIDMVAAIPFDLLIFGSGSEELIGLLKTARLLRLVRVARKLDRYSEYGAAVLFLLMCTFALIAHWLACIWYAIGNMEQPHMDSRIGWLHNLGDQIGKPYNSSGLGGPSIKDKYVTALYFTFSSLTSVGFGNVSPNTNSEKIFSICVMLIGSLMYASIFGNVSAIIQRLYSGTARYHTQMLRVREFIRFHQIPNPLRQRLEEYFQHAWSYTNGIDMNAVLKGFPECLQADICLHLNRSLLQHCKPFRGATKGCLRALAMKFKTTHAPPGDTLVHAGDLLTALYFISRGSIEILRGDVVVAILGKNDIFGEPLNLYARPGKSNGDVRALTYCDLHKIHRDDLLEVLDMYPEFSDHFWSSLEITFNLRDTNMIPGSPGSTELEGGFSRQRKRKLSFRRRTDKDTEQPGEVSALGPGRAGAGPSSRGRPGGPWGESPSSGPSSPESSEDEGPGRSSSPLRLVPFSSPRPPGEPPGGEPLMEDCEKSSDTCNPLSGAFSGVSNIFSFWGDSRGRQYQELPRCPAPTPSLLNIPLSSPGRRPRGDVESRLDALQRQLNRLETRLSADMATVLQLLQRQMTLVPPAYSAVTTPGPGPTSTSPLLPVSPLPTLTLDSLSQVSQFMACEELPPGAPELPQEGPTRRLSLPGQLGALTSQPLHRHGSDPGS
Sequence of Somatostatin receptor type 2 (P30874 whole entry): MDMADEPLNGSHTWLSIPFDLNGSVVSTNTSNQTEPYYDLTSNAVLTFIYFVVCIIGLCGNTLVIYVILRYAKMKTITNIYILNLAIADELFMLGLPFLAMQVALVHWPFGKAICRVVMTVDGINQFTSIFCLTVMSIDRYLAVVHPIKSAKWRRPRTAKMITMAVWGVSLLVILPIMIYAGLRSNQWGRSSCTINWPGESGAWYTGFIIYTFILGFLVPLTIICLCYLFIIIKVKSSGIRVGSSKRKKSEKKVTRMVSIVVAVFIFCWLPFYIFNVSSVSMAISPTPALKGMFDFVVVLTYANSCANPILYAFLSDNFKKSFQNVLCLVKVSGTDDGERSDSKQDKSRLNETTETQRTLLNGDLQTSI
Sequence of Somatostatin receptor type 1 (P30872 whole entry): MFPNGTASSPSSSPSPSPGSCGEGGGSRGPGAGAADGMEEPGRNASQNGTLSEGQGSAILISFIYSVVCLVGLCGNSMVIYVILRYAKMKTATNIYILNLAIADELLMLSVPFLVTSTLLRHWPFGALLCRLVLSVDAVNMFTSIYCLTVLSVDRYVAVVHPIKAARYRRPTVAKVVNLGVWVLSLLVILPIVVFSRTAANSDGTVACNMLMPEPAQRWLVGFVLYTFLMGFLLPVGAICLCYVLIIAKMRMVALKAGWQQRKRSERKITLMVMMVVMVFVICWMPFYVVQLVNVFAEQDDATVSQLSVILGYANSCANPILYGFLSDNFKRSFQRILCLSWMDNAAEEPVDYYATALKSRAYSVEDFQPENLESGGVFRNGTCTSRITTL
Sequence of Somatostatin receptor type 3 (P32745 whole entry): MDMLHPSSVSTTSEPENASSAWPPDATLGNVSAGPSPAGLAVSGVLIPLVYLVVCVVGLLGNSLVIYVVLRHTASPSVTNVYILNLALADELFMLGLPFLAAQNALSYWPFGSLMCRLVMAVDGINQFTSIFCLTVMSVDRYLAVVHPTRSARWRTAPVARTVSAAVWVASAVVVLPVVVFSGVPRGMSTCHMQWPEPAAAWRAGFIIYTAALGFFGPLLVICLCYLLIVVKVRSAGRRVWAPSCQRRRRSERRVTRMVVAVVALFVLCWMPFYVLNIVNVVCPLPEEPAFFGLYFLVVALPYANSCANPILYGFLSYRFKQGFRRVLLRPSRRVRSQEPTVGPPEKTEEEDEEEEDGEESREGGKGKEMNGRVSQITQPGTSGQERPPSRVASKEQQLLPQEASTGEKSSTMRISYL

What is called Ki is a dissociation constant, usually derived from enzyme kinetics or from competition with a known ligand. Lower therefore signals higher affinity. `COc1cc(CN2CCC(NC(=O)c3cncc(C)c3)CC2)c(OC)c2ccccc12` returned a Ki in assay [1] of 40 nM.
As to `CCOc1cc(CN2CCC(NC(=O)c3cncc(C)c3)CC2)ccc1Cl`, the Ki in assay [2] is greater than 10000 nM; in assay [3] it was 5100 nM; in assay [4], greater than 10000 nM; in assay [5], 270 nM; in assay [1] it was 20 nM.
For orientation: IC50 means the concentration at which inhibition is half-maximal. Lower therefore signals greater potency. The compound `CCOc1cc(CN2CCC(NC(=O)c3cccc(S(C)(=O)=O)c3)CC2)ccc1Cl` showed an IC50 in assay [6] of 1300 nM. Moreover, the Ki is greater than 5000 nM in assay [5] and 60 nM in assay [1].
In turn, `COc1cc(CN2CCC(NC(=O)c3ccccc3)CC2)c(OC)c2ccccc12` displayed an inhibition constant (Ki) in assay [1] of 120 nM.
Same read-out and setting: in the case of `COc1cc(CN2CCC(NC(=O)c3ccc(C(C)(C)C)cc3)CC2)c(OC)c2ccccc12` it was 20 nM; in that of `COc1cc(CN2CCC3(CC2)OC(=O)c2ccccc23)c(OC)c2ccccc12`, 1100 nM.

The values are drawn from ChEMBL document CHEMBL1138334, “From astemizole to a novel hit series of small-molecule somatostatin 5 receptor antagonists via GPCR affinity profiling” (J Med Chem, 2007).
